Data reported in patent publication US20060046968A1, “Prodrug substituted benzoxazoles as estrogenic agents” (priority 2004, published 2006).

Experiments:
Type in all cases: in vivo
[1] = tested on: Sexually immature Sprague-Dawley rats; test: Rat uterotrophic test procedure (Procedure 1); settings: compound 2 mg/rat + 17α-ethinyl, 17β-estradiol 0.06 μg/rat s.c. (antagonist mode)
[2] = tested on: Sexually immature 129 SvE mice; test: Mouse uterotrophic test procedure (Procedure 2); settings: compound 20 mg/kg s.c., days 22-25
[3] = tested on: ovariectomized Sprague-Dawley rats; test: Bone mineral density in the ovariectomized rat (pQCT, proximal tibia); settings: compound 10 mg/kg s.c.; 5 weeks
[4] = tested on: Male HLA-B27 rats; test: HLA rat test for inflammatory bowel disease: stool character (3 = diarrhea; 2 = soft stool; 1 = normal stool); settings: Study C
[5] = tested on: Male HLA-B27 rats; test: HLA-B27 rat test for inflammatory bowel disease: histological scoring of colon; settings: Study C
Protocol: Representative metabolites of compounds of the invention were evaluated in the HLA rat standard pharmacological test procedure, which emulates inflammatory bowel disease in humans. The following briefly describes the procedure used and results obtained. […] Louis) and water. Stool quality was observed daily and graded according to the following scale: Diarrhea=3; soft stool=2; normal stool=1. At the end of the study, serum was collected and stored at −70° C. A section of colon was prepared for histological analysis and an additional segment was analyzed for myeloperoxidase activity. In Study A, rats (22-26 weeks old) were dosed subcutaneously once per day for seven days with one of the regimens listed below. […] Histological analysis. Colonic tissue was immersed in 10% neutral buffered formalin. Each specimen of colon was separated into four samples for evaluation. The formalin-fixed tissues were processed in a Tissue-Tek® vaccum infiltration processor (Miles, Inc; West Haven, Conn.) for paraffin embedding. The samples were sectioned at 5 μm and then stained with hematoxylin and eosin (H&E) for blinded histological evaluations using a scale modified after Boughton-Smith. After the scores were completed, the samples were unblinded, and data were tabulated and analyzed by ANOVA linear modeling with multiple mean comparisons. Sections of colonic tissue were evaluated for several disease indicators and given relative scores.

[6] = tested on: Male HLA-B27 rats; test: HLA-B27 rat model of arthritis: joint scores; settings: Study 1, oral 20 mg/kg once per day (10 mg/kg earlier)
[7] = tested on: Male HLA-B27 rats; test: HLA-B27 rat model of arthritis: joint histology; settings: Study 1; oral 46 days; 10 mg/kg days 1-18, then 20 mg/kg
Protocol: At the end of the study, the rats are euthanized with CO2, hindlimbs removed at necropsy and fixed in 10% buffered formalin, and the tarsal joints decalcified and embedded in paraffin. Histologic sections are stained with Hematoxylin and Eosin or […] Green stain. Slides are coded so that the examiner is blinded to the treatment groups. Synovial tissue from tarsal joints is evaluated based on synovial hyperplasia, inflammatory cell infiltration, and pannus formation [Poole and Coombs, International Archives of Allergy & Applied Immunology 54: 97-113 (1977)], as outlined below. [table] […] [table] Representative metabolites of compounds of the invention were evaluated in the HLA-B27 rat standard pharmacological test procedure, which emulates arthritis in humans. The following briefly describes the procedure used and results obtained. Male HLA-B27 rats were obtained from Taconic and provided unrestricted access to a food (PMI® LabDiet 5001) and water. Joint scores and histology were evaluated as described above for the Lewis rat model of adjuvant-induced arthritis. Study 1: […]

[8] = oral 7 weeks, 10 mg/kg days 1-18, then 20 mg/kg

SMILES: Oc1cc(Br)c2oc(-c3ccc(O)c(F)c3)nc2c1 [Example 21, 7-BROMO-2-(3-FLUORO-4-HYDROXYPHENYL)-1,3-BENZOXAZOL-5-OL]
- mean uterine weight ± SEM [1]: 93.9 ± 5.9 mg
- mean uterine weight ± SEM [2]: 12.1 ± 1.7 mg
- Total Bone Mineral Density (mean ± SEM) [3]: 501.40 ± 11.97 mg/mL
- Trabecular Bone Mineral Density (mean ± SEM) [3]: 312.34 ± 19.73 mg/mL
- Stool Character (group's average score) ([4]; oral 10 mg/kg once per day, Day 1): 2.75
- Stool Character (group's average score) ([4]; oral 10 mg/kg once per day, Day 3): 2.75
- Stool Character (group's average score) ([4]; oral 10 mg/kg once per day, Day 4): 2.75
- Stool Character (group's average score) ([4]; oral 10 mg/kg once per day, Day 5): 2.75
- Stool Character (group's average score) ([4]; oral 10 mg/kg once per day, Day 6): 2.5
- Stool Character (group's average score) ([4]; oral 10 mg/kg once per day, Day 7): 2.5
- Stool Character (group's average score) ([4]; oral 10 mg/kg once per day, Day 8): 2.75
- Stool Character (group's average score) ([4]; oral 10 mg/kg once per day, Day 9): 2.5
- Stool Character (group's average score) ([4]; oral 10 mg/kg once per day, Day 10): 2.75
- Stool Character (group's average score) ([4]; oral 10 mg/kg once per day, Day 11): 2.5
- Stool Character (group's average score) ([4]; oral 10 mg/kg once per day, Day 12): 2.5
- Stool Character (group's average score) ([4]; oral 10 mg/kg once per day, Day 13): 2.5
- Stool Character (group's average score) ([4]; oral 10 mg/kg once per day, Day 14): 2.5
- Stool Character (group's average score) ([4]; oral 10 mg/kg once per day, Day 15): 2.5
- Stool Character (group's average score) ([4]; oral 10 mg/kg once per day, Day 16): 2.5
- Stool Character (group's average score) ([4]; oral 10 mg/kg once per day, Day 17): 2.5
- Stool Character (group's average score) ([4]; oral 10 mg/kg once per day, Day 18): 2.5
- Stool Character (group's average score) ([4]; oral 20 mg/kg once per day (10 mg/kg days 1-18), Day 19): 2.75
- Stool Character (group's average score) ([4]; oral 20 mg/kg once per day (10 mg/kg days 1-18), Day 20): 2.5
- Stool Character (group's average score) ([4]; oral 20 mg/kg once per day (10 mg/kg days 1-18), Day 21): 2.75
- Stool Character (group's average score) ([4]; oral 20 mg/kg once per day (10 mg/kg days 1-18), Day 22): 2.5
- Stool Character (group's average score) ([4]; oral 20 mg/kg once per day (10 mg/kg days 1-18), Day 23): 2.25
- Stool Character (group's average score) ([4]; oral 20 mg/kg once per day (10 mg/kg days 1-18), Day 24): 1.75
- Stool Character (group's average score) ([4]; oral 20 mg/kg once per day (10 mg/kg earlier), Day 25): 2
- Stool Character (group's average score) ([4]; oral 20 mg/kg once per day (10 mg/kg earlier), Day 26): 2
- Stool Character (group's average score) ([4]; oral 20 mg/kg once per day (10 mg/kg earlier), Day 27): 2
- Stool Character (group's average score) ([4]; oral 20 mg/kg once per day (10 mg/kg earlier), Day 28): 2
- Stool Character (group's average score) ([4]; oral 20 mg/kg once per day (10 mg/kg earlier), Day 29): 2
- Stool Character (group's average score) ([4]; oral 20 mg/kg once per day (10 mg/kg earlier), Day 30): 2.25
- Stool Character (group's average score) ([4]; oral 20 mg/kg once per day (10 mg/kg earlier), Day 31): 2.25
- Stool Character (group's average score) ([4]; oral 20 mg/kg once per day (10 mg/kg earlier), Day 32): 2
- Stool Character (group's average score) ([4]; oral 20 mg/kg once per day (10 mg/kg earlier), Day 33): 1.5
- Stool Character (group's average score) ([4]; oral 20 mg/kg once per day (10 mg/kg earlier), Day 34): 1.75
- Stool Character (group's average score) ([4]; oral 20 mg/kg once per day (10 mg/kg earlier), Day 35): 1.5
- Stool Character (group's average score) ([4]; oral 20 mg/kg once per day (10 mg/kg earlier), Day 36): 1.75
- Stool Character (group's average score) ([4]; oral 20 mg/kg once per day (10 mg/kg earlier), Day 37): 1.5
- Stool Character (group's average score) ([4]; oral 20 mg/kg once per day (10 mg/kg earlier), Day 38): 1.5
- Stool Character (group's average score) ([4]; oral 20 mg/kg once per day (10 mg/kg earlier), Day 39): 2
- Stool Character (group's average score) ([4]; oral 20 mg/kg once per day (10 mg/kg earlier), Day 40): 1.75
- Stool Character (group's average score) ([4]; oral 20 mg/kg once per day (10 mg/kg earlier), Day 41): 2
- Stool Character (group's average score) ([4]; oral 20 mg/kg once per day (10 mg/kg earlier), Day 42): 2
- Stool Character (group's average score) ([4]; oral 20 mg/kg once per day (10 mg/kg earlier), Day 43): 2
- Stool Character (group's average score) ([4]; oral 20 mg/kg once per day (10 mg/kg earlier), Day 44): 2
- Stool Character (group's average score) ([4]; oral 20 mg/kg once per day (10 mg/kg earlier), Day 45): 2
- Stool Character (group's average score) ([4]; oral 20 mg/kg once per day (10 mg/kg earlier), Day 46): 2
- Scores on all disease parameters versus vehicle ([5]; oral): although not statistically significant, were lower than corresponding scores from vehicle-treated rats
- Fibrosis (0-2), mean ± SD [5, 8]: 0.56 ± 0.32
- Inflammation (0-3), mean ± SD [5, 8]: 2.06 ± 0.43
- Lesion depth (0-2), mean ± SD [5, 8]: 0.75 ± 0.50
- Total score, mean ± SD [5, 8]: 4.19 ± 1.74
- Ulceration (0-2), mean ± SD [5, 8]: 0.81 ± 0.47
- Joint inflammation score ([6]; Day 29): 0.75
- Joint inflammation score ([6]; Day 30): 1.75
- Joint inflammation score ([6]; Day 31): 1.25
- Joint inflammation score ([6]; Day 32): 0.75
- Joint inflammation score ([6]; Day 33): 1
- Joint inflammation score ([6]; Day 34): 1.25
- Joint inflammation score ([6]; Day 35): 2.25
- Joint inflammation score ([6]; Day 36): 1
- Joint inflammation score ([6]; Day 37): 4
- Joint inflammation score ([6]; Day 38): 1.5
- Joint inflammation score ([6]; Day 39): 1.5
- Joint inflammation score ([6]; Day 40): 2.25
- Joint inflammation score ([6]; Day 41): 2.25
- Joint inflammation score ([6]; Day 42): 1.5
- Joint inflammation score ([6]; Day 43): 1.25
- Joint inflammation score ([6]; Day 44): 1
- Joint inflammation score ([6]; Day 45): 2.5
- Joint inflammation score ([6]; Day 46): 2
- Mankin score (mean ± SD) [7]: 4.6 ± 0.9
- Synovitis score (mean ± SD) [7]: 6.1 ± 0.75
